Experimental data published in article PMC10709440, “High-throughput ligand profile characterization in novel cell lines expressing seven heterologous insect olfactory receptors for the detection of volatile plant biomarkers” (Scientific Reports, 2023).
Where two headings read alike, the source gives them in different places.

Key:
Drosophila OR98a = target: T1, Drosophila OR98a (Drosophila melanogaster, UniProt Q9VAZ3); test: Calcium ion fluorescence (GCaMP6) assay, OR98a stable HEK293 cell line; assay type: cell-based; conditions: for DF norm AVERAGE OR98a: normalized fluorescence change, values below 0.05 threshold given as 0; for Average response: OR98a cell line, average of biological replicates, fraction of VUAA1 response
T1 construct: expressed in transfected cells
T1 sequence (Q9VAZ3 1-397): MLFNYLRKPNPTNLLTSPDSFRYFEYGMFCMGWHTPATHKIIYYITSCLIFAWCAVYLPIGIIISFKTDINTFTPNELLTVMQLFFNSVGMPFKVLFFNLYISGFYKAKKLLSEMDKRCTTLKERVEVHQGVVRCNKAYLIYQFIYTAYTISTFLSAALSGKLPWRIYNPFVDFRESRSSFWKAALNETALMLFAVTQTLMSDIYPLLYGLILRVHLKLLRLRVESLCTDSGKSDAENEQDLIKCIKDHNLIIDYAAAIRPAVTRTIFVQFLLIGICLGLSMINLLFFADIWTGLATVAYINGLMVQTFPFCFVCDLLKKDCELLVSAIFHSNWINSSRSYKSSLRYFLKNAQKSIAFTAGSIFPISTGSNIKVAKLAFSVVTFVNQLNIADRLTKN
T1 sequence (Q9VNB5 1-486 partner): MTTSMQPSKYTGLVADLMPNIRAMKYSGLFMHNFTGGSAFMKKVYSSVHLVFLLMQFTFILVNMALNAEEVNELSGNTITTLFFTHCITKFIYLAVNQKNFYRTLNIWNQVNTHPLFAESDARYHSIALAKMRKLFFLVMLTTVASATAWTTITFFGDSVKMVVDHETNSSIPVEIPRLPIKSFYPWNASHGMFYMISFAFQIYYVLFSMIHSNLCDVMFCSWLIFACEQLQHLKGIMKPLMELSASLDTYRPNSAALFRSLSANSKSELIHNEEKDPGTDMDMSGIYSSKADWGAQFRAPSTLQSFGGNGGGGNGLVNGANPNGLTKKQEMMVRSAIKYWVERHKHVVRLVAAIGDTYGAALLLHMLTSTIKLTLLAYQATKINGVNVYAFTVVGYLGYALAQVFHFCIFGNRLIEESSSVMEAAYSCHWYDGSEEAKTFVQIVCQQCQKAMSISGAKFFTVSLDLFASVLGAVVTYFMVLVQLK
Method: These VUAA1 normalized ∆F values were used to compare the different receptors and ligands.
The concentration-dependent effect of the reference ligands on their cognate cell lines was examined in more detail. Twelve different ligand concentrations were measured on each cell line in an overall 0.01 μM to 100 μM concentration range with 5 repetitions with three technical replicates each time.
Twelve thousand to 18,000 cells were plated into each well of a black wall, transparent bottom 384-well microplate (Greiner) 48 h or 72 h before the measurements and were simultaneously treated with 1 μg/mL doxycycline. […] The plate has 24 columns, thus we could record responses in up to eight different cell lines in each plate. On the day of the experiment, the growth medium was replaced with 20 µL assay buffer/well (140 mM NaCl, 5 mM KCl, 2 mM CaCl2, 1 mM MgCl2, 5 mM HEPES-Na, 20 mM glucose, pH 7.3, 340 mOsm). […] Baseline fluorescence (F0) was recorded for 5 s, after which 7 µL VOC buffer (140 mM NaCl, 5 mM KCl, 2 mM CaCl2, 1 mM MgCl2, 5 mM HEPES-Na, 31 mM glucose, 0.1% DMSO, pH 7.3, 340 mOsm) was injected into each well in one row and the fluorescence response was recorded for an additional 30 s, at a rate of one read/sec. VOC solutions (VOC buffer with 4× concentration of the final measured VOC concentration, 9 µL/well was injected) were measured on the same wells in a second round with the same protocol. Each individual concentration of a specific VOC sample was recorded in three wells for the same cell line on the same microplate. The raw data were exported in xls file format, F0 and FMAX values, and the fluorescence intensity changes (∆F) were calculated in Excel (Microsoft) (Supplementary file Data summary.xlsx) using the following equation: ΔF=FMAX-F0/F0 (see also Fig. 1C). On each plate, we recorded the response of each cell line to 50 µM VUAA1. The average of these ∆F values of each cell line were used to calculate the VUAA1-normalized values for the rest of the plate, by dividing VOC response ∆F values by the average VUAA1 response ∆F value of the corresponding OR cell line. Each VOC-OR combination was measured three times as technical replicates. […] The average of these replicates were used as one ∆F and VUAA1-normalized ∆F in the following analysis.
In the next rows we tested the reference VOCs (or other VOCs known to activate the corresponding cell lines), in order to test if all cell lines are responsive. The remaining rows were used to test VOCs with unknown effect.
The recorded FMAX, F0, ∆F, VUAA1-normalized ∆F values, as well as the OR name, the name of the tested sample, and the final concentration for each well were copied into supplementary file Data summary.xlsx, that was used to summarize all the plates recorded. Here, the averages of the measurements were calculated for each receptor-VOC-concentration combination.

Drosophila OR49b = target: T2, Drosophila OR49b (Drosophila melanogaster, UniProt Q9V6H2); test: cell-based; conditions: for activation at 1 µM / activation at 10 µM / activation at 100 µM: HEK293; for Average response: OR49b cell line, mean of biological replicates
T2 construct: expressed in transfected cells
T2 sequence (Q9V6H2 1-375): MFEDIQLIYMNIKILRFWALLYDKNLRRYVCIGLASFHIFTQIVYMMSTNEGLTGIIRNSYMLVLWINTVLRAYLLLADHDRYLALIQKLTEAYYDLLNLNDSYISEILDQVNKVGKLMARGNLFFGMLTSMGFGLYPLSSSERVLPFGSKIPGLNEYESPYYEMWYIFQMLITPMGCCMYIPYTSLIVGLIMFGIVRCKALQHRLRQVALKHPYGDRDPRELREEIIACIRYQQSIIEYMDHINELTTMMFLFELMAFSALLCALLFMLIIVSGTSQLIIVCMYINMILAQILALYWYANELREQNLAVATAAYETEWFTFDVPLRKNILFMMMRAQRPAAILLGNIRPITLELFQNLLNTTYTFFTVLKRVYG
T2 sequence (Q9VNB5 1-486 partner): T1 sequence (Q9VNB5 1-486 partner)
Summary of the method: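 Responses are VUAA1-normalized ΔF: each VOC-evoked calcium signal, (FMAX−F0)/F0 over 30 s after injection, divided by the same line's mean 50 µM VUAA1 response. Cells were doxycycline-induced HEK293 with GCaMP6 and the cognate Drosophila OR, in HEPES buffer pH 7.3; ligands tested 0.01–100 μM.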

[1] = HEK293, read-out: Average response
[2] = HEK293, read-out: OR98a response (VUAA1-normalized response)
[3] = VOC concentration 1 μM, read-out: OR49b response (VUAA1-normalized response)
[4] = VOC concentration 10 μM, read-out: OR49b response (VUAA1-normalized response)
[5] = VOC concentration 100 μM, read-out: OR49b response (VUAA1-normalized response)

Row | SMILES | activation at 1 µM (Drosophila OR98a; [1]) [%] | activation at 10 µM (Drosophila OR98a; [1]) [%] | activation at 100 µM (Drosophila OR98a; [1]) [%] | activation at 1 µM (Drosophila OR98a; [2]) [%] | activation at 10 µM (Drosophila OR98a; [2]) [%] | activation at 100 µM (Drosophila OR98a; [2]) [%] | DF norm AVERAGE OR98a (Drosophila OR98a; concentration 1) | DF norm AVERAGE OR98a (Drosophila OR98a; concentration 10) | DF norm AVERAGE OR98a (Drosophila OR98a; concentration 100) | activation at 1 µM (Drosophila OR49b; [3]) [%] | activation at 10 µM (Drosophila OR49b; [4]) [%] | activation at 100 µM (Drosophila OR49b; [5]) [%] | Average response (Drosophila OR49b; odorant cc. 1 µM) | Average response (Drosophila OR49b; odorant cc. 10 µM) | Average response (Drosophila OR49b; odorant cc. 100 µM) | DF norm AVERAGE OR49b (Drosophila OR49b) | OR98a response (VUAA1-normalized response) (Drosophila OR98a; VOC concentration 1 μM) | OR98a response (VUAA1-normalized response) (Drosophila OR98a; VOC concentration 10 μM) | OR98a response (VUAA1-normalized response) (Drosophila OR98a; VOC concentration 100 μM) | OR49b response (VUAA1-normalized response) (Drosophila OR49b; VOC concentration 1 μM) | other results
1 | Cc1ccc(O)cc1 [4-methylphenol] | 0 | 2 | 2.76 | 0 | 0 | 0 | 0 | 0 | 0 | 0 | 11 | 44 | 0.0329 | 0.11 | 0.44 |  |  |  |  |  | activation at 1 µM (Drosophila OR49b; 1 μM VOC, 50 μM VUAA1 = 1, read-out: OR49b Average response (VUAA1-normalized)): 3%; activation at 10 µM (Drosophila OR49b; 10 μM VOC, 50 μM VUAA1 = 1, read-out: OR49b Average response (VUAA1-normalized)): 11%; activation at 100 µM (Drosophila OR49b; 100 μM VOC, 50 μM VUAA1 = 1, read-out: OR49b Average response (VUAA1-normalized)): 44%
2 | C=CC(O)C/C=C\CC (centres unmarked) [(5Z)-octa-1,5-dien-3-ol] | 0 | 8 | 7 | 0 | 8 | 7 | 0 | 0.08127 | 0.07281 | 0 | 0 | 0 | 0.00 | 0.04 | 0.00 | 0 |  |  |  |  | 
3 | C=C1[C@H]2CC[C@@H]3[C@H]2C(C)(C)CCC[C@]13C [(+)-longifolene] |  |  |  |  |  |  | 0 | 0.1258 | 0 |  |  |  | 0.08 | 0.00 | 0.00 |  | 0.00 | 0.13 | 0.00 | 0.08 | Average response (Drosophila OR98a; cc. 1 µM): 0.0106; Average response (Drosophila OR98a; cc. 10 µM): 0.13; Average response (Drosophila OR98a; cc. 100 µM): 0.0176; OR49b response (VUAA1-normalized response) (Drosophila OR49b; VOC concentration 10 μM): 0.00; OR49b response (VUAA1-normalized response) (Drosophila OR49b; VOC concentration 100 μM): 0.00
4 | C=C1CC[C@H]2O[C@]2(C)CC[C@@H]2[C@@H]1CC2(C)C [(-)-caryophyllene oxide] | 0 | 4 | 0 | 0 | 0 | 0 | 0 | 0 | 0 | 0 | 0 | 0 | 0.00 | 0.00 | 0.00 | 0 |  |  |  |  | 
5 | C=C1CC/C=C(\C)CC[C@@H]2[C@@H]1CC2(C)C [(-)-trans-caryophyllene] | 7 | 6 | 6 | 7 | 6 | 6 | 0.06975 | 0.06201 | 0.05748 | 0 | 0 | 0 | 0.00 | 0.00 | 0.00 | 0 |  |  |  |  | 
6 | C=C(C)[C@H]1CC=C(C)CC1 [(R)-(+)-limonene] |  |  |  |  |  |  | 0 | 0 | 0 |  |  |  | 0.00 | 0.00 | 0.0168 | 0 | 0.00 | 0.00 | 0.00 | 0.00 | Average response (Drosophila OR98a; cc. 1 µM): 0.03; Average response (Drosophila OR98a; cc. 10 µM): 0.00; Average response (Drosophila OR98a; cc. 100 µM): 0.03; OR49b response (VUAA1-normalized response) (Drosophila OR49b; VOC concentration 10 μM): 0.00; OR49b response (VUAA1-normalized response) (Drosophila OR49b; VOC concentration 100 μM): 0.00
7 | CC1=CCC[C@@]2(C)[C@@H]3CC[C@]12CC3(C)C [(−)-α-neoclovene] |  |  |  |  |  |  | 0.1483 | 0 | 0 |  |  |  | 0.00 | 0.00 | 0.00 | 0 | 0.15 | 0.00 | 0.00 | 0.00 | Average response (Drosophila OR98a; cc. 1 µM): 0.15; Average response (Drosophila OR98a; cc. 10 µM): 0.00; Average response (Drosophila OR98a; cc. 100 µM): 0.0421; OR49b response (VUAA1-normalized response) (Drosophila OR49b; VOC concentration 10 μM): 0.00; OR49b response (VUAA1-normalized response) (Drosophila OR49b; VOC concentration 100 μM): 0.00
8 | CC/C=C\CCO [E-3-hexenol] |  |  |  |  |  |  |  |  |  |  |  |  |  |  |  |  | 0.00 | 0.00 | 0.00 | 0.00 | OR49b response (VUAA1-normalized response) (Drosophila OR49b; VOC concentration 10 μM): 0.00; OR49b response (VUAA1-normalized response) (Drosophila OR49b; VOC concentration 100 μM): 0.08
